Key:
PIM1 = PIM1 (Homo sapiens, UniProt P11309); experiment: KinaseGlo Pim1 ATP depletion assay; type: biochemical
Summary of the method: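 IC50 is derived from residual ATP measured by KinaseGlo Plus luminescence once about half the ATP was consumed. Final conditions were 20 μM ATP, 40 μM BAD peptide and 2.5 nM kinase in HEPES pH 7.5 buffer with MgCl2, DTT and BSA, plus 2.5% DMSO. Compound and enzyme were premixed 15 min before ATP addition.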

cABLT315 kinase = cABLT315 kinase (Homo sapiens, UniProt P00519); experiment: cABLT315 kinase Caliper assay; type: biochemical
Protocol: PKCα and cABLT315 Kinase Caliper Assays
Assays were performed in 384 well microtiter plates. Each assay plate contained 8-point serial dilutions for test compounds, as well as two 16-point serial dilutions of staurosporine as reference compound, plus 16 high- and 16 low controls. Liquid handling and incubation steps were done on a Thermo CatX workstation equipped with a Innovadyne Nanodrop Express. Between pipetting steps, tips were cleaned in wash cycles using wash buffer. Plates with terminated kinase reactions were transferred to the Caliper LC3000 workstations for reading. Phosphorylated and unphosphorylated peptides were separated using the Caliper microfluidic mobilitishift technology and Kinase activities were calculated from the amounts of formed phospho-peptide.
Kinase reactions were prepared in 384 low volume plates by the following sequence:
1. 0.05 μA Compound (start with 1.8 mM in 90% DMSO/10% H2O)
2. +4.5 μl 2× peptide/ATP solution
3. +4.5 μl 2× enzyme solution
4. Incubate for 60 min at 30° C.
4. +16 μl stop/run buffer
Independent of the kinase, all reactions were done performed in 50 mM HEPES, pH 7.5, 1 mM DTT, 0.02% Tween20, 0.02% BSA, and 0.6% DMSO. For cABLT315 assay specific details were as follows: [cABLT315 kinase]=2.4 nM, [ATP]=10 uM, [peptide]=2 uM, [Mg]=10 mM. For PKCα, assay specific details were as follows: [kinase]=0.012 nM, [ATP]=17 uM, [peptide]=1 uM, [Mg]=7 mM, [Ca]=0.2 mM.

hERG = target: T1, hERG (Homo sapiens, UniProt Q12809); experiment: hERG binding assay ([3H] dofetilide displacement); conditions: dofetilide displacement; read-out: HERGdof IC50
T1 construct: host or cells: crude membrane suspension
Summary of the method: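 Displacement of 2.5 nM [3H]dofetilide from crude hERG membranes (ca. 15 μg protein) by filtration binding, 90 min at room temperature, 0.5% DMSO final. Non-specific binding defined with 25 μM terfenadine; compounds run as 9-point duplicate curves from 30 μM to 3 nM.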

FGFR3 kinase = FGFR3 kinase (Homo sapiens, UniProt P22607); experiment: FGFR3 kinase inhibition assay (LanthaScreen TR-FRET); type: biochemical
Protocol: FGFR3 Kinase Inhibition Assay
LanthaScreen™ is the detection of Time-Resolved Fluorescence Resonance Energy Transfer (TR-FRET) using lanthanide chelates to measure interactions between various binding partners. The application of TR-FRET to assay kinase activity was first described by Mathis (1995). A TR-FRET assay was used to measure FGFR3 kinase inhibitory activity. The assay panel was run on a Biomek FX liquid handling workstations. To the assay plates containing […] compound or control solutions, 4.5 μL of buffer A (50 mM TRIS-HCl pH 7.4, 2 mM DTT, 0.02% Tween 20, 0.02 mM Na3VO4, H2O nanpure) including a generic concentration of ATP (2 μM f.c.) was added per well, followed by 4.5 μL of buffer B (4 uM ATP in Buffer A) including a generic concentration of polyEAY (50 nM f.c.), FGFR3 kinase, and divalent cations. Final concentration of kinase and cations were: [FGFR3 kinase]=0.20 nM, [Mg]=3 mM, [Mn]=3 mM. After 1 hour of incubation the kinase reactions were stopped by the addition of 4.5 μL of stop solution D (50 mM EDTA, 20 mM TRIS-HCl pH 7.4, 0.04% NP-40) immediately followed by 4.5 μL of buffer A (50 mM TRIS-HCl pH 7.4, 2 mM DTT, 0.02% Tween 20, 0.02 mM Na3VO4, H2O nanpure) including the Tb-labeled P-20 antibody to give a total detection volume of 18 μL. After an incubation time of 45 min in the dark, the plates were transferred into the Pherastar fluorescence reader for counting. The effect of compound on the enzymatic activity was obtained from the linear progress curves and determined from one reading (end point measurement).

Sequence of FGFR3 kinase (P22607 23-806): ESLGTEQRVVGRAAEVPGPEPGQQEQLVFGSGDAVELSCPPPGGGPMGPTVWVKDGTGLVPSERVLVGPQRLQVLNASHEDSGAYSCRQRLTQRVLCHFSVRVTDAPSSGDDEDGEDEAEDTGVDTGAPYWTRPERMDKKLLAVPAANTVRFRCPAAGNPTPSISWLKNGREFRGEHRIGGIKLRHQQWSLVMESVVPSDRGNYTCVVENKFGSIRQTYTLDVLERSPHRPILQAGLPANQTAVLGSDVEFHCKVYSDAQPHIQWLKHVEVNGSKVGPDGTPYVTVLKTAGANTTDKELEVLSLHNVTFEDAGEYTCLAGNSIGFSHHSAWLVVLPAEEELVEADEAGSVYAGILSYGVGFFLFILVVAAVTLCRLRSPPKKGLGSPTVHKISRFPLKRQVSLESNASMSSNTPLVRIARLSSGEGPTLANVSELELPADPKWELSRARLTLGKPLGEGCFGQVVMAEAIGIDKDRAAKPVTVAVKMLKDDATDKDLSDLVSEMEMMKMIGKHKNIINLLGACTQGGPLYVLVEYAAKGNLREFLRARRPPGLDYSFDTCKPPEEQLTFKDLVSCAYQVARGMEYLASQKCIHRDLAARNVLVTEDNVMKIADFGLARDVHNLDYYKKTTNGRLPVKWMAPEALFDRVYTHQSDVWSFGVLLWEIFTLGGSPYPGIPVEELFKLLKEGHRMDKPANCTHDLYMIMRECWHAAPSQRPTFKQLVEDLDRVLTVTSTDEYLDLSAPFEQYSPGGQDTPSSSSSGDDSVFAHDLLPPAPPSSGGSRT
T1 sequence (Q12809 whole entry): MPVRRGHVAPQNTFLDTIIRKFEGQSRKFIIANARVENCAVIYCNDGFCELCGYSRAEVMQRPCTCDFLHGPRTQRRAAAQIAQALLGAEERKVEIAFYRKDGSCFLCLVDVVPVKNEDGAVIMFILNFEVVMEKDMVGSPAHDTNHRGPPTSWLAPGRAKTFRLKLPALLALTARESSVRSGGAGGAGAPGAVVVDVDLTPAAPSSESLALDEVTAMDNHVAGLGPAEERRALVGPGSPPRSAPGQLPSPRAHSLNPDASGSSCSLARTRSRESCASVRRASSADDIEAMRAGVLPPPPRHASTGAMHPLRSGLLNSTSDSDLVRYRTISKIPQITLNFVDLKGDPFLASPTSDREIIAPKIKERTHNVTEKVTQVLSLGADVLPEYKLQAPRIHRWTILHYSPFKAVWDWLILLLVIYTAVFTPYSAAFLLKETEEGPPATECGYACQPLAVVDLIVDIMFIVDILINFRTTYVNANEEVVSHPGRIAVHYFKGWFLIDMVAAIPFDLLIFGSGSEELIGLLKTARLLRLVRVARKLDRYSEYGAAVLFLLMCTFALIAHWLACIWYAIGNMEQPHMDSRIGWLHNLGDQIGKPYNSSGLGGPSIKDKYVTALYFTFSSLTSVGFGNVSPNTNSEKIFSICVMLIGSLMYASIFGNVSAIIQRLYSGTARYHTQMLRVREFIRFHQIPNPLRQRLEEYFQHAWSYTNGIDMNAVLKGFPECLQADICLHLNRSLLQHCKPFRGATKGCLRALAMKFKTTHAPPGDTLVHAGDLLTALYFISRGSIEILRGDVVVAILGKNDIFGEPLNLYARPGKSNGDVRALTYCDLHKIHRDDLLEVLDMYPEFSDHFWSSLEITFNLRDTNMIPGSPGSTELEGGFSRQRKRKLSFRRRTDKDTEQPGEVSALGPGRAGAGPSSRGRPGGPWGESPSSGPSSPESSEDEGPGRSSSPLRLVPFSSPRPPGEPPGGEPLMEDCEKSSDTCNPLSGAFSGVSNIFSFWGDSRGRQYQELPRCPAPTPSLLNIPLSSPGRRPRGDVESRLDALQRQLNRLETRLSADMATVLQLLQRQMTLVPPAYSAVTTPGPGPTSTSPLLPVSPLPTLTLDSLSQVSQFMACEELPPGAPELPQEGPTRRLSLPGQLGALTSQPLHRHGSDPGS
Sequence of PIM1 (P11309 whole entry): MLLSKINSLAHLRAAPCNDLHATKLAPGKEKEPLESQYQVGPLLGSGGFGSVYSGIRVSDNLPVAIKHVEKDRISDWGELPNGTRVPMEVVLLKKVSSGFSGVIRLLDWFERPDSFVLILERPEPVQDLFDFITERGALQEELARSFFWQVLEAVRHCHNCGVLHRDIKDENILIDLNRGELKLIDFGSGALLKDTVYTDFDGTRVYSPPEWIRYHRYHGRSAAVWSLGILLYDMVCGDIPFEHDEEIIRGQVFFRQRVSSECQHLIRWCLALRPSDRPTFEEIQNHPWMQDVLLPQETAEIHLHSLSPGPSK

**Q.** How did the IC50 (PIM1) turn out when Nc1ncc(-c2ccccc2)nc1C(=O)Nc1cnccc1[C@@H]1C[C@H](O)[C@]2(O)CCC[C@@H]2O1 [Example 186, 3-amino-N-(4-((2S,4S,4aR,7aS)-4,4a-dihydroxyoctahydrocyclopenta[b]pyran-2-yl)pyridin-3-yl)-6-phenylpyrazine-2-carboxamide] was run?
**A.** The IC50 was 0.159 µM.

**Q.** What about the IC50 (cABLT315 kinase) of the same compound?
**A.** The IC50 was 9.9 µM.

**Q.** What about the IC50 (hERG) of the same compound?
**A.** The IC50 was over 30 µM.

**Q.** And the IC50 (FGFR3 kinase)?
**A.** Its IC50 is 3.7 µM.

**Q.** Nc1ncc(-c2ccccc2)nc1C(=O)Nc1cnccc1[C@@H]1C[C@H](O)[C@]2(O)CCCC[C@@H]2O1 [Example 176, 3-amino-N-(4-((2S,4S,4aR,8aS)-4,4a-dihydroxyoctahydro-2H-chromen-2-yl)pyridin-3-yl)-6-phenylpyrazine-2-carboxamide] was tested. Which IC50 (PIM1) did it give?
**A.** Its IC50 is 0.0638 µM.

**Q.** What about the IC50 (cABLT315 kinase) of the same compound?
**A.** Its IC50 is 7.4 µM.

**Q.** And the IC50 (hERG)?
**A.** Its IC50 is over 30 µM.

**Q.** What about the IC50 (FGFR3 kinase) of the same compound?
**A.** Its IC50 is 8 µM.

**Q.** How did the IC50 (PIM1) turn out when O=C1CC[C@H]2O[C@@H](c3ccncc3NC(=O)c3ccc(F)c(-c4c(F)cccc4F)n3)C[C@@H](O)[C@@H]2N1 [Example 196, 6-(2,6-difluorophenyl)-5-fluoro-N-(4-((2R,4R,4aS,8aR)-4-hydroxy-6-oxooctahydro-2H-pyrano[3,2-b]pyridin-2-yl)pyridin-3-yl)picolinamide] was run?
**A.** Its IC50 is 0.0034 µM.

**Q.** And the IC50 (cABLT315 kinase)?
**A.** The IC50 was over 10 µM.

**Q.** And the IC50 (hERG)?
**A.** The IC50 was over 30 µM.

**Q.** And the IC50 (FGFR3 kinase)?
**A.** The IC50 was over 10 µM.

**Q.** Nc1cnc(-c2c(F)cccc2F)nc1C(=O)Nc1cnccc1[C@H]1C[C@@H](N)[C@@]2(O)CCC[C@H]2O1 [Example 213, 5-amino-N-(4-((2R,4R,4aS,7aR)-4-amino-4a-hydroxyoctahydrocyclopenta[b]pyran-2-yl)pyridin-3-yl)-2-(2,6-difluorophenyl)pyrimidine-4-carboxamide] was tested. Which IC50 (PIM1) did it give?
**A.** The IC50 was 0.0039 µM.

**Q.** And the IC50 (cABLT315 kinase)?
**A.** Its IC50 is over 10 µM.

**Q.** What about the IC50 (hERG) of the same compound?
**A.** Its IC50 is over 30 µM.

**Q.** What about the IC50 (FGFR3 kinase) of the same compound?
**A.** Its IC50 is over 10 µM.

**Q.** With CC[C@]1(O)[C@H](O)C[C@H](c2ccncc2NC(=O)c2nc(-c3c(F)cccc3F)ncc2N)O[C@@H]1C [Example 143, 5-amino-2-(2,6-difluorophenyl)-N-(4-((2R,4R,5S,6R)-5-ethyl-4,5-dihydroxy-6-methyltetrahydro-2H-pyran-2-yl)pyridin-3-yl)pyrimidine-4-carboxamide] as the compound, how does the IC50 (PIM1) read?
**A.** The IC50 was 0.0013 µM.

**Q.** And the IC50 (cABLT315 kinase)?
**A.** The IC50 was over 10 µM.

**Q.** And the IC50 (hERG)?
**A.** The IC50 was over 30 µM.

**Q.** What about the IC50 (FGFR3 kinase) of the same compound?
**A.** Its IC50 is over 10 µM.

**Q.** For Nc1ncc(-c2ccccc2)nc1C(=O)Nc1cnccc1[C@H]1C[C@@H](O)[C@@]2(O)CCCC[C@H]2O1 [Example 173, 3-amino-N-(4-((2R,4R,4aS,8aR)-4,4a-dihydroxyoctahydro-2H-chromen-2-yl)pyridin-3-yl)-6-phenylpyrazine-2-carboxamide], which IC50 (PIM1) is on record?
**A.** The IC50 was 0.0022 µM.

**Q.** And the IC50 (cABLT315 kinase)?
**A.** Its IC50 is 0.07 µM.

**Q.** What about the IC50 (hERG) of the same compound?
**A.** Its IC50 is over 30 µM.

**Q.** And the IC50 (FGFR3 kinase)?
**A.** Its IC50 is 0.045 µM.

**Q.** For O=C(Nc1cnccc1[C@H]1C[C@@H](O)[C@@]2(O)CCCC[C@H]2O1)c1c[nH]cc(-c2ccccc2)c1=O [Example 178, N-(4-((2R,4R,4aS,8aR)-4,4a-dihydroxyoctahydro-2H-chromen-2-yl)pyridin-3-yl)-4-oxo-5-phenyl-1,4-dihydropyridine-3-carboxamide], which IC50 (PIM1) is on record?
**A.** The IC50 was 0.154 µM.

**Q.** And the IC50 (cABLT315 kinase)?
**A.** The IC50 was over 10 µM.

**Q.** And the IC50 (hERG)?
**A.** The IC50 was over 30 µM.

**Q.** What about the IC50 (FGFR3 kinase) of the same compound?
**A.** Its IC50 is over 10 µM.

**Q.** For Nc1ncc(-c2ccccc2)nc1C(=O)Nc1cnccc1[C@H]1C[C@@H](O)[C@@]2(O)CCC[C@H]2O1 [Example 195, 3-amino-N-(4-((2R,4R,4aS,7aR)-4,4a-dihydroxyoctahydrocyclopenta[b]pyran-2-yl)pyridin-3-yl)-6-phenylpyrazine-2-carboxamide], which IC50 (PIM1) is on record?
**A.** Its IC50 is 0.0022 µM.

**Q.** And the IC50 (cABLT315 kinase)?
**A.** The IC50 was 0.09 µM.

**Q.** And the IC50 (hERG)?
**A.** The IC50 was over 30 µM.

**Q.** And the IC50 (FGFR3 kinase)?
**A.** Its IC50 is 0.011 µM.

**Q.** What does the source list for N[C@@H]1C[C@H](c2ccncc2NC(=O)c2ccc(F)c(-c3c(F)cccc3F)n2)O[C@@H]2CCC[C@]12O [Example 210, N-(4-((2R,4R,4aS,7aR)-4-amino-4a-hydroxyoctahydrocyclopenta[b]pyran-2-yl)pyridin-3-yl)-6-(2,6-difluorophenyl)-5-fluoropicolinamide]?
**A.** IC50 (PIM1): 0.0005 µM; IC50 (cABLT315 kinase): > 10 µM; IC50 (hERG): 10 µM; IC50 (FGFR3 kinase): > 10 µM
